According to patent publication US9212175B2, “Pharmaceutical hypocholesterolemic compositions” (Lipideon Biotechnology AG, priority 2009, dated 2015):

Experiments:
[1] = system: C56BL/6 mice; test: Acute cholesterol absorption inhibition assay in mice; format: in vivo; conditions: [3H]-cholesterol counts in plasma 2 h after cholesterol, relative to vehicle control
Method: Accute Cholesterol Absorption Inhibition Assay in Mice
Compounds were added to a solution of 0.5% Methylcellulose (Sigma)/5% Solutol, BASF) or another suitable vehicle at a concentration of 0.1-1 mg/ml. C56BL/6 mice (n=3-6/group), aged 6-8 weeks were dosed orally with 0.1 ml of vehicle or 0.1 mL of vehicle containing the test compound (0.5-5 mg/kg) or ezetimibe (10 mg/kg) as positive control. Thirty minutes later all of the mice were dosed orally with 0.1 mL corn oil containing 2 μCi [^3H]-cholesterol per mouse. Two hours after administration of radiolabeled cholesterol, the animals were euthanized and blood collected. Cholesterol counts in plasma were determined, and percent inhibition of cholesterol absorption was calculated relative to the vehicle control.

[2] = Determination of absorption: unidirectional permeability assay (Cloe Screen, Cyprotex); format: in vitro ADME; conditions: human, Caco-2, apical side, cell monolayer, read-out: Papp in cm · s^−1
Method: It has further been shown that the compounds of the invention display the desired pharmacological activity by evaluation of their potency in vivo (in mice and hamsters). The bioavailability of the compounds of the present invention has been determined by unidirectional Caco2 Permeability measurement.
Determination of Absorption
The permeability of the compounds of the present invention was determined using the Cloe Screen® (unidirectional Cloe Screen […] permeability assay; Cyprotex) and is expressed by Papp (cm·s^−1). Caco-2 cells are widely used as an in vitro model for predicting human drug absorption. The Caco-2 cell line is derived from a human colorectal carcinoma, and when cultured, the cells spontaneously differentiate into monolayers of polarised enterocytes. The cells are typically seeded on Transwell™ plates and form a confluent monolayer over 20 days prior to the experiment. On day 20, the test compound is added to the apical side of the membrane and the transport of the compound across the monolayer is monitored over a 2 hour time period. The permeability coefficient (Papp) is calculated from the equation: Papp=(dQ/dt)/(C0xA), where (dQ/dt) is the rate of permeation of the drug across the cells, C0 is the donor compartment concentration at time zero and A is the area of the cell monolayer.

[3] = system: Syrian Golden Hamsters; test: Long-term LDL lowering in Syrian Golden hamsters; format: in vivo; conditions: hamsters on high fat diet, dose 3 × 1 mg/kg/day, day 14, relative to vehicle control
Method: Long-Term LDL Lowering in Syrian Golden Hamsters
Groups of 6 male hamsters weighing 90±10 g are fed a high fat diet (g/100 g: corn oil, 5; coconut oil, 5; cholesterol, 0.2; standard chow, 89.8) for 7 days. Afterwards vehicle or test compounds (3-10 mg/kg bw/day) in a solution of 0.5% Methylcellulose, 5% Solutol or another suitable vehicle are administered at least three times daily for 14 consecutive days. Following an overnight fasting period, blood serum is obtained from the retro-orbital sinus of each animal on day 0 (7 days after initiating of the high fat diet) and on days 8 and 15 after dosing for 7 and 14 days. The serum is assayed for total cholesterol, LDL-cholesterol, HDL-cholesterol and triglycerides. The percent change of treated relative to the vehicle control group is determined.

| Papp A→B at 2 h [2] [×10⁻⁶ cm/s] | Compound | Cholesterol Absorption Inhibition (%) ([1]; oral dose 1 mg/kg) | LDL reduction @ day 14 (%) [3] [%] | Cholesterol Absorption Inhibition (%) ([1]; oral dose 10 mg/kg (positive control)) |
| --- | --- | --- | --- | --- |
| 1.68 | O=C(O)COC1(CCc2ccc([C@@H]3[C@@H](CC[C@H](O)c4ccc(F)cc4)C(=O)N3c3ccc(F)cc3)cc2)COC1 [Example 1, 2-(3-(4-((2S,3R)-1-(4-fluorophenyl)-3-((S)-3-(4-fluorophenyl)-3-hydroxypropyl)-4-oxoazetidin-2-yl)phenethyl)oxetan-3-yloxy)acetic acid] | 87 | – | – |
| 0.14 | O=C(O)[C@H]1CCCN1C(=O)COC1(CCc2ccc([C@@H]3[C@@H](CC[C@H](O)c4ccc(F)cc4)C(=O)N3c3ccc(F)cc3)cc2)COC1 [Example 19, (R)-1-(2-(3-(4-((2S,3R)-1-(4-fluorophenyl)-3-((S)-3-(4-fluorophenyl)-3-hydroxypropyl)-4-oxoazetidin-2-yl)phenethyl)oxetan-3-yloxy)acetyl)pyrrolidine-2-carboxylic acid] | 83 | – | – |
| – | O=C(O)[C@@H]1CCCN1C(=O)COC1(CCc2ccc([C@@H]3[C@@H](CC[C@H](O)c4ccc(F)cc4)C(=O)N3c3ccc(F)cc3)cc2)COC1 [Example 20, (S)-1-(2-(3-(4-((2S,3R)-1-(4-fluorophenyl)-3-((S)-3-(4-fluorophenyl)-3-hydroxypropyl)-4-oxoazetidin-2-yl)phenethyl)oxetan-3-yloxy)acetyl)pyrrolidine-2-carboxylic acid] | 42 | – | – |
| – | NC(=O)[C@H]1CCCN1C(=O)COC1(CCc2ccc([C@@H]3[C@@H](CC[C@H](O)c4ccc(F)cc4)C(=O)N3c3ccc(F)cc3)cc2)COC1 [Example 22, (R)-1-(2-(3-(4-((2S,3R)-1-(4-fluorophenyl)-3-((S)-3-(4-fluorophenyl)-3-hydroxypropyl)-4-oxoazetidin-2-yl)phenethyl)oxetan-3-yloxy)acetyl)pyrrolidine-2-carboxamide] | 80 | – | – |
| – | O=C(O)C1CCCCN1C(=O)COC1(CCc2ccc([C@@H]3[C@@H](CC[C@H](O)c4ccc(F)cc4)C(=O)N3c3ccc(F)cc3)cc2)COC1 (stereo partly drawn) [Example 23, 1-(2-(3-(4-((2S,3R)-1-(4-fluorophenyl)-3-((S)-3-(4-fluorophenyl)-3-hydroxypropyl)-4-oxoazetidin-2-yl)phenethyl)oxetan-3-yloxy)acetyl)piperidine-2-carboxylic acid] | 73 | – | – |
| – | O=C(COC1(CCc2ccc([C@@H]3[C@@H](CC[C@H](O)c4ccc(F)cc4)C(=O)N3c3ccc(F)cc3)cc2)COC1)NCCS(=O)(=O)O [Example 28, 2-(2-(3-(4-((2S,3R)-1-(4-fluorophenyl)-3-((S)-3-(4-fluorophenyl)-3-hydroxypropyl)-4-oxoazetidin-2-yl)phenethyl)oxetan-3-yloxy)acetamido)ethanesulfonic acid] | 63 | – | – |
| 0.57 | O=C(COC1(CCc2ccc([C@@H]3[C@@H](CC[C@H](O)c4ccc(F)cc4)C(=O)N3c3ccc(F)cc3)cc2)COC1)N[C@H](CO)C(=O)O [Example 34, (R)-2-(2-(3-(4-((2S,3R)-1-(4-fluorophenyl)-3-((S)-3-(4-fluorophenyl)-3-hydroxypropyl)-4-oxoazetidin-2-yl)phenethyl)oxetan-3-yloxy)acetamido)-3-hydroxypropanoic acid] | – | 76 | – |
| 0.73 | O=C(COC1(CCc2ccc([C@@H]3[C@@H](CC[C@H](O)c4ccc(F)cc4)C(=O)N3c3ccc(F)cc3)cc2)COC1)NC1(C(=O)O)CCC1 [Example 35, 1-(2-(3-(4-((2S,3R)-1-(4-fluorophenyl)-3-((S)-3-(4-fluorophenyl)-3-hydroxypropyl)-4-oxoazetidin-2-yl)phenethyl)oxetan-3-yloxy)acetamido)cyclobutanecarboxylic acid] | – | 80 | – |
| 0.92 | CC(C)[C@@H](NC(=O)COC1(CCc2ccc([C@@H]3[C@@H](CC[C@H](O)c4ccc(F)cc4)C(=O)N3c3ccc(F)cc3)cc2)COC1)C(=O)O [Example 39, (R)-2-(2-(3-(4-((2S,3R)-1-(4-fluorophenyl)-3-((S)-3-(4-fluorophenyl)-3-hydroxypropyl)-4-oxoazetidin-2-yl)phenethyl)oxetan-3-yloxy)acetamido)-3-methylbutanoic acid] | 82 | 74 | – |
| 1.09 | O=C(COC1(CCc2ccc([C@@H]3[C@@H](CC[C@H](O)c4ccc(F)cc4)C(=O)N3c3ccc(F)cc3)cc2)COC1)NC(CO)(CO)CO [Example 46, N-(1,3-dihydroxy-2-(hydroxymethyl)propan-2-yl)-2-(3-(4-((2S,3R)-1-(4-fluorophenyl)-3-((S)-3-(4-fluorophenyl)-3-hydroxypropyl)-4-oxoazetidin-2-yl)phenethyl)oxetan-3-yloxy)acetamide] | – | 67 | – |
| 46 | O=C1[C@H](CC[C@H](O)c2ccc(F)cc2)[C@@H](c2ccc(O)cc2)N1c1ccc(F)cc1 [Ezetimibe, reference compound] | – | – | 87 |
